The values that follow come from patent US12685773B2 (priority 2020, dated 2026).

The test system of one data set is relapsed/refractory HL. The note with it: cited from earlier work.
[1] abbreviates: 3 patients did not have data at 3 months.
Where [2] appears, read: AE of special interest, classical HL patients.
The mark [3] stands for this setting: Grade 3 or higher AE, classical HL patients.
Where [4] appears, read: not resolved by Day 28, classical HL patients.
Where [5] appears, read: 9 patients evaluated at 6 weeks after infusion.

`Cn1c(CCCC(=O)O)nc2cc(N(CCCl)CCCl)ccc21` [Benda]: under setting [1], the “Prolonged Grade 3/4 Anemia (at month 3): n” value amounted to 0, the “Prolonged Grade 3/4 Neutropenia (at month 3): n” value came out at 0 and the “Prolonged Grade 3/4 Thrombocytopenia (at month 3): n” value worked out at 0. Moreover, under setting [2], the “Cytokine Release Syndrome (all Grade 1): %” value is “(13) %” and the “Cytokine Release Syndrome (all Grade 1): n” value was 1. Further, under setting [3], the “Anemia: n” value is 0, the “Dyspnea: n” value amounted to 0, the “Headache: n” value is 0 and the “Hypoalbuminemia: n” value turned out to be 0. Further, under setting [3], the “Hyponatremia: n” value stood at 0, the “Leukopenia: %” value was “(38) %”, the “Leukopenia: n” value is on record as 3 and the “Lung Infection: n” value is reported as 0. Also, under setting [3], the “Lymphopenia: %” value is “(100) %”, the “Lymphopenia: n” value was determined as 8, the “Neutropenia: %” value is reported as “(25) %” and the “Neutropenia: n” value amounted to 2. Under setting [3], the “Pharyngitis: n” value was 0, the “Rash: n” value came to 0, the “Thrombocytopenia: %” value is “(13) %” and the “Thrombocytopenia: n” value turned out to be 1. Moreover, for the setting “classical HL patients”, the “Grade 3/4 Anemia at day 28: n” value was found to be 0 and the “Rash (Any Grade): %” value is listed as “(25) %”. Besides, the “Rash (Any Grade): n” value (classical HL patients, maculopapular skin rash) was 2. Further, under setting [4], the “Grade 3/4 Neutropenia at day 28: n” value is given as 0 and the “Grade 3/4 Thrombocytopenia at day 28: n” value was 0.

Regarding cyclophosphamide and fludarabine, in the data set with relapsed/refractory HL (setting [5]), the CR is listed as 66.6%, the ORR is given as 66.6% and the PD was 33.3%. The “disease progression: patients” value in the data set on relapsed/refractory HL (out of 9 patients evaluated at 6 weeks after infusion) is reported as 3. In addition, the “CR: patients” value with relapsed/refractory HL (out of 9 patients evaluated at 6 weeks after infusion, cyclophosphamide 500 mg/m^2 and fludarabine 30 mg/m^2 daily for 3 days) is on record as 6.
